Experimental data published in patent publication US5446186A, “Structure and synthesis of nitrophenyl-EGTA, a caged calcium, intermediates thereof and a method of producing a high photochemical yield of liberated calcium” (priority 1993, dated 1995).
Entries after “also recorded” stand apart in the source; their conditions may differ. Like-named read-outs stand apart in the source and are kept apart here. One block for each compound: values may come before it.

Columns and labels:
[1] = pH 7.2; before photolysis; read-out: Kd for Ca^2+ (comparison chelators); cited from earlier work
[2] = DM-nitrophen:Ca^2+ complex; cited from earlier work
[3] = tested on: chemically skinned psoas fibers from rabbit skeletal muscle; test: Ca-induced contraction of chemically skinned skeletal muscle fibers after laser flash photolysis; format: cell-based; conditions: for time to achieve half-maximal tension: 15° C., 347 nm ruby laser flash, NP-EGTA:Ca^2+ 1.9 mM at 1 mM free Mg^2+, or DM-nitrophen:Ca^2+ 1.4 mM at 40 μM free Mg^2+; for tension transients, NP-EGTA compared with DM-nitrophen: photoreleased Ca^2+; for maximal contraction / full tension after laser flash: single 347 nm ruby laser flash, free Mg^2+ 1 mM (NP-EGTA), 40 μM (DM-nitrophen); for Ca^2+ release as rate-limiting step for contraction: skinned skeletal muscle fiber
Source text: The arrow indicates the time of a pulse from a frequency-doubled ruby laser (347 nm). For DM-nitrophen, before photolysis, the muscle-bathing solution contained (mM): Tes (100), HDTA (27.91), ATPNa2 (3.0), creatine phosphate (20), glutathione (10), DM-nitrophen (2.0), MgCl2 (1.19), CaCl2 (1.60). In the NP-EGTA solution there was (mM): Tes (100), HDTA (25.35), ATPNa2 (5.50), creatine phosphate (20), glutathione (10), NP-EGTA (2.1), MgCl2 (7.0), CaCl2 (1.9). The pH of both solutions was 7.0; the ionic strength was 0.2M. Tension development was measured as in Ref. 24.
Photolysis of nitrophenyl-EGTA:Ca^2+ and DM-nitrophen:Ca^2+ complexes were used to release Ca^2+ rapidly in chemically skinned psoas fibers from rabbit skeletal muscle. […] The time to achieve half-maximal tension using NP-EGTA was 17.9 ms and 18.1 ms with DM-nitrophen at 15° C. (see FIG. 4). […] It is interesting that there are no major effects, on the rate of the development of tension nor on the maximal contraction, due to a change in [Mg]free from 40 μM to 1 mM in these experiments.

[4] = Mg^2+ affinity by titration of Mg^2+-indicator mag-fura-red without and with NP-EGTA; format: binding; conditions: 40 mM hepes, 100 mM KCl, pH 7.2, 25° C.; absorbance at 480 nm
Protocol: The Mg^2+ affinity of NP-EGTA was determined by titration of the Mg^2+ -indicator, mag-fura-red (20 μM) without and with NP-EGTA (10 mM) in buffer (40 mM hepes, 100 mM KCl, pH=7.2) at 25° C.

[5] = Absorption and fluorescence spectral properties; format: physicochemical
Protocol: FIG. 1 is an absorption spectra of nitrophenyl-EGTA. The absorption spectrum of a solution of NP-EGTA ([…]) in buffer (40 mM hepes, 100 mM KCl, pH 7.2) is shown (spectrum a). The spectrum is altered (spectrum b) on addition of saturating Ca^2+ (0.20 mM). Photolysis of this sample for 300 s with the filtered output of a 1-kW Hg are lamp yielded photoproducts with spectrum (c).
The absorption spectra of NP-EGTA without and with saturating Ca^2+ are shown in FIG. 1(a) and (b) respectively. The extinction coefficients at 260 and 347 nm are 5.52×10^3 M^-1 cm^-1 and 974 M^-1 cm^-1 respectively in Ca^2+ -free buffer (40 mM hepes, 100 mM KCl, pH 7.2). Saturating Ca^2+ produces a 10% decrease in the absorption at 260 nm. The absorption spectrum changes to that shown in FIG. 1(c) upon complete photolysis in the presence of Ca^2+. […] In fact, fluo-3 saturated with Ca^2+ is about 2.1×10s-fold more fluorescent at 530 nm than NP-EGTA is at 400 nm.

[6] = Ca^2+ affinity by titration of chelator with Ca^2+, fluo-3 emission, Scatchard analysis; format: binding; conditions: 40 mM hepes, 100 mM KCl, pH 7.2, 20° C.; before photolysis
Source text: The affinity of NP-EGTA for Ca^2+ was obtained by titration of the chelator with incremental additions of Ca^2+. […] For any chelator:Ca^a+ complex to function effectively as a caged Ca, the pre-photolysis affinity should be high for two reasons. First, it is crucial that the resting or pre-photolysis [Ca^2+ ] is very low, i.e. that it is non-activating or sub-threshold for the biological system being investigated. The Kd^Ca and the total amounts of Ca^2+ and chelator determine [Ca^2+ ]free. Secondly, the percentage of chelator loaded with Ca^2+ before photolysis is important as this is a factor which determines how much Ca^2+ is liberated upon photolysis, as Ca^2+ can only be photoreleased if it is complexed. Also, if the chelator is frilly loaded, then the photoreleased Ca^2+ will not be rebound by unphotolysed, unloaded chelator, i.e. step increases rather than pulses of Ca^2+ will be produced (see ref. 19, 20).

[7] = Selectivity for Ca^2+ versus Mg^2+: fluo-3 signal on addition of 1 mM Mg^2+ and on irradiation; format: binding
[8] = Quantum yield of photolysis by HPLC, comparison to caged-Pi; format: physicochemical
Protocol: The filtered output of 1000-W high pressure Hg arc lamp was used to photolyze solutions of NP-EGTA (1.77 mM) or caged-Pi (3.12 mM) in buffer (40 mM hepes, 100 mM KCl, pH 7.2) with absorbances of 0.0105 in a cuvette with a pathlength of […]. Each solution also contained inosine (100 mM) as the internal standard.
On the left, t=0 s, on the fight, t=15 s.
On the left, t=0 s, on the fight, t=15 s. HPLC was performed using a Novapak C18 reverse-phase HPLC column and two Waters 501 pumps fitted with a Waters 680 automated control module delivering 2 ml/min. Pump A delivered […] and pump B 80% acetonitrile/0.052% TFA. The gradient was for 0-5 min 100% A, from 5-20 min a linear change to 80% A, and from 20-40 min 80% A. The eluent was monitored by a Waters 990 photodiode array detector and chromatograms are shown at 260 nm.
The quantum yield of NP-EGTA photolysis was determined by comparison to that of caged-Pi which has previously been determined to have a quantum yield of photolysis of 0.54 (17). The time-course of disappearance of the caged compounds was followed by HPLC analysis of the reaction mixture (FIG. 2). The amount of NP-EGTA or caged-Pi remaining in the reaction mixture was normalized for each HPLC analysis by comparison to a photochemically inert internal standard, inosine (100 mM). […] Under the same conditions (i.e. flux density), 10.3% of NP-EGTA was photolyzed when saturating Ca^a+ (3.0 mM) was present (FIG. 2b). Thus, the quantum yield of photolysis of the NP-EGTA:Ca^2+ complex is 0.23.

[9] = Ca^2+-free buffer, 40 mM hepes, 100 mM KCl, pH 7.2

Compound: O=C(O)CN(CCOCCOCCN(CC(=O)O)CC(=O)O)CC(=O)O [EGTA, ethylenebis(oxyethylenenitrilo)tetraacetic acid]
Kd [1]: 0.15 µM

Compound: Cc1ccc(N(CC(=O)O)CC(=O)O)c(OCCOc2cc(C(O)c3cc4c(cc3[N+](=O)[O-])OCO4)ccc2N(CC(=O)O)CC(=O)O)c1 (centres unmarked) [nitr-5]
Ca^2+ released on 50% photolysis (1.0 mM Ca^2+ present): 0.80 mM | prephotolysis free [Ca^2+] (1.0 mM Ca^2+ present): 0.145 mM

Compound: COc1cc(C(CN(CC(=O)O)CC(=O)O)N(CC(=O)O)CC(=O)O)c([N+](=O)[O-])cc1OC (centres unmarked) [DM-nitrophen, reference compound]
Ca^2+ release t1/2 [2]: ≤ 180 microseconds | time to achieve half-maximal tension [3]: 18.1 ms | tension transients, NP-EGTA compared with DM-nitrophen [3]: identical, rapid tension transients | maximal contraction / full tension after laser flash [3]: Rapid development of maximal tension | Ca^2+ release as rate-limiting step for contraction [3]: not rate-limiting | Kd [1]: 0.005 µM

Kd [4]: 8800 µM | Kd for Mg^2+ [4]: in the mM range | fluorescence emission [5]: virtually non-fluorescent | extinction coefficient at 260 nm [5, 9]: 5520 M⁻¹ cm⁻¹ | extinction coefficient at 347 nm [5, 9]: 974 M⁻¹ cm⁻¹ | decrease in absorption at 260 nm on saturating Ca^2+ ([5]; saturating Ca^2+): 10% | quantum yield of photolysis, in the absence of Ca^2+ ([8]; Ca^2+-free, pH 7.2): 0.20 | percent photolyzed with Ca^2+ ([8]; after 15 s, saturating Ca^2+ (3.0 mM), 0.25 min, 1770 µM): 10.3% | percent photolyzed without Ca^2+ ([8]; same flux density, Ca^2+-free, 1770 µM): 8.91% | quantum yield of photolysis, in the presence of Ca^2+ ([8]; saturating Ca^2+ (3.0 mM), pH 7.2): 0.23 | photolysis efficiency relative to DM-nitrophen ([8]; versus DM-nitrophen (ref. 4)): the same as that of DM-nitrophen | photolysis efficiency relative to nitr-5 or nitr-7 ([8]; versus nitr-5 or nitr-7 (ref. 2)): ~6 times
Compound: O=C(O)CN(CCOCCOCC(c1ccccc1[N+](=O)[O-])N(CC(=O)O)CC(=O)O)CC(=O)O (centres unmarked) [NP-EGTA]
Kd [6]: 0.08 µM | time to achieve half-maximal tension [3]: 17.9 ms | time to achieve half-maximal tension ([3]; listed as nitrophenyl-EGTA): 18 ms | tension transients, NP-EGTA compared with DM-nitrophen [3]: identical, rapid tension transients | maximal contraction / full tension after laser flash [3]: releases sufficient Ca^2+ to generate full tension in the muscle fiber | maximal contraction / full tension after laser flash ([3]; listed as nitrophenyl-EGTA): maximal contraction after a single flash | Ca^2+ release as rate-limiting step for contraction [3]: also not rate-limiting | effect of 1 mM Mg^2+ on fluo-3 signal ([7]; 0.655 mM NP-EGTA with 0.55 mM Ca^2+): no effect on the fluo-3 signal; also recorded: no increase in the fluo-3 signal | Ca^2+ liberation on irradiation in presence of Mg^2+ (fluo-3 signal) ([7]; frequency-doubled ruby laser, 347 nm): liberates Ca^2+ from the NP-EGTA:Ca^2+ complex

Compound: Cc1ccc(N(CC(=O)O)CC(=O)O)c(O[C@@H]2CCC[C@@H]2Oc2cc(C(O)c3cc4c(cc3[N+](=O)[O-])OCO4)ccc2N(CC(=O)O)CC(=O)O)c1 (some centres unmarked) [nitr-7]
Ca^2+ released on 50% photolysis ([chelator]:[Ca^2+] 2 mM:1.50 mM): 3 mM

percent photolyzed ([8]; after 15 s, caged-Pi 3.12 mM, 0.25 min): 15.1%
Compound: CC(OP(=O)(O)O)c1ccccc1[N+](=O)[O-] (centres unmarked) [caged-Pi, 1-(o-nitrophenyl)-ethyl phosphate, reference compound]
